Laboratory results: US20230121313A1 (priority 2019, published 2023)
Read-outs that look alike come from different tables or passages of the source. Marks after values point to notes of the source that are not given here.

Experiments:
[1] = system: PCG/RSC of adult female Sprague Dawley rats; details: 3 hours after a single intraperitoneal injection (Jevtovic-Todorovic 2000); cited from earlier work
[2] = for QC sample long-term storage stability: human plasma QC sample at −20° C.; for QC sample bench-top stability: human plasma QC sample; for QC sample bench-top stability / Processed sample stability: room temperature; for Stock solution stability (spike solutions): ketamine/norketamine spike solutions at −20° C.; for Whole Blood Stability: room temperature and in an ice-water bath (0-4° C.)
Protocol: This example provides an LC-MS/MS method for the determination of ketamine and norketamine in sodium heparin human plasma using ketamine-d4 and norketamine-d4 as the respective internal standards (IS).
Retention time and peak area were determined by Analyst® Data Acquisition/Processing Software (Version 1.4.2). Analyte concentrations were obtained from a calibration curve constructed by plotting the peak area ratio versus the concentration using Watson LIMS (Version 7.3). Watson LIMS and Microsoft Office Excel were used for statistical calculations. When Office Excel was used the calculations were 100% audited. Concentrations were calculated using linear regression according to the following equation: […]
Selectivity is defined as the ability of a chromatographic method to measure a response from the analyte without interference from the biological matrix. This was accomplished by evaluating six individual lots of human plasma prepared as blank and at the lower limit of quantitation (LLOQ, 0.500 ng/mL).
The matrix effect is defined as the suppression or enhancement of ionization of analytes by the presence of matrix components in the biological samples. See, e.g., C. T. Viswanathan, “Quantitative Bioanalytical Methods Validation and Implementation: Best Practices for Chromatographic and Ligand Binding Assays,” Pharmaceutical Research, Vol. 24, No. 10, October 2007, p. 1969. The matrix effect was evaluated by extracting single replicates of six lots of blank human plasma and spiking each lot at the Low and High QC concentration levels (1.50 ng/mL and 375 ng/mL) post extraction. The area ratios of the six lots of post-extraction spiked plasma samples were compared to the mean area ratio obtained from three replicates of the neat solution prepared at the same concentration level in purified water.
The linearity of the method was evaluated at a linear range of 0.500/0.500-500/500 ng/mL for ketamine/norketamine in human plasma. Linear regression (with a weighting factor of 1/x2) was used to produce the best fit for the concentration-detector response relationship for ketamine and norketamine in human plasma.
The validation was conducted with a target LLOQ of 0.500 ng/mL for ketamine and norketamine in human plasma. To evaluate the sensitivity, six QC samples prepared at the LLOQ were analyzed during three individual batch runs as part of the intra-run and inter-run accuracy and precision for the method. The concentrations were calculated with the calibration curve.
The intra-run and inter-run accuracy and precision of the method were investigated at four different QC concentration levels (0.500 ng/mL (LLOQ), 1.50 ng/mL, 80.0 ng/mL, and 375 ng/mL).
Recoveries were calculated according to the following formula: […]
To assess the reinjection reproducibility, an analyte batch containing a standard curve and QC samples was reinjected after being kept at room temperature for 161.5 hours.

[3] = system: subjects with MDD at imminent risk for suicide; details: double-blind phase; all randomized analysis set; N=36
Description: Among 68 randomized subjects, 66 were included in the safety analysis set (defined as receiving at least one dose of study medication in the double-blind phase). […] All safety subjects (N=66) were included in the intent-to-treat (ITT) analysis set (defined as receiving at least one dose of study medication during the double-blind phase and having both the baseline and the Day 1, 4-hour postdose evaluation for the MADRS total score). Forty-nine subjects were included in the safety (FU) analysis set (defined as all subjects who have at least 1 visit during the follow up phase).

[4] = Pharmacokinetics of intranasal esketamine 28, 56, 84 mg in healthy subjects (Example 9); details: for AUClast / AUC∞ / Cmax / t1/2 / Metabolite/Parent Ratio AUClast / Metabolite/Parent Ratio AUC∞ / Metabolite/Parent Ratio Cmax: mean; for Tmax: median; for Metabolite/Parent Ratio AUClast / Metabolite/Parent Ratio AUC∞ / Metabolite/Parent Ratio Cmax: noresketamine to esketamine
Protocol: This was an open-label, single-center study. The subjects were healthy Caucasian men and women, 20 to 55 years of age, inclusive. […] The solution consisted of:
Pharmacokinetic blood samples for measurement of esketamine and noresketamine concentrations in plasma were collected from predose until up to 24 hours after each intranasal esketamine regimen on Day 1 of each period.
Blood samples (4 mL each) for determination of esketamine and noresketamine plasma concentrations were collected into the appropriate collection tube (e.g., Vacutainer®) at timepoints 0.00, 0.12, 0.20, 0.37, 0.53, 0.67, 0.83, 1.00, 1.25, 1.50, 2.00, 3.00, 4.00, 6.00, 9.00, 12.00, 18.00, and 24.00 h. The total amount of blood to be drawn for clinical laboratory tests and PK evaluations is approximately 327 mL.
Plasma samples were analyzed for esketamine and noresketamine concentrations using the validated, specific and sensitive liquid chromatography coupled to tandem mass spectrometry (LC-MS/MS) achiral method of Example 8.
Serial PK blood samples (4 mL each) were collected for a 24-hour period from each subject (Periods 1, 2, and 3).
The following key parameters of esketamine and noresketamine in plasma were calculated using noncompartmental methods and actual sampling times: Cmax, tmax, AUClast, AUC∞, t1/2,λ, and λz.

[5] = system: MDD/TRD subjects; details: 52-week safety study in MDD/TRD subjects (Berman et al., 2011); cited from earlier work
[6] = freeze (−20° C.)/thaw (ice-water bath)
[7] = freeze (−20° C.)/thaw (room temperature)
[8] = stock solutions at room temperature under white light
[9] = noresketamine in plasma after intranasal esketamine 28 mg (Treatment A)
[10] = noresketamine in plasma after intranasal esketamine 56 mg (Treatment B)
[11] = noresketamine in plasma after intranasal esketamine 84 mg (Treatment C)

CNC1(c2ccccc2Cl)CCCCC1=O (racemic) [ketamine, reference compound]
ED50-value for the induction of neuronal vacuolation in the PCG/RSC [1]: 47.5 mg/kg body weight
QC sample freeze/thaw stability [2, 6]: 3 freeze (−20° C.)/thaw (ice-water bath) cycles
QC sample freeze/thaw stability [2, 7]: 3 freeze (−20° C.)/thaw (room temperature) cycles
QC sample long-term storage stability [2]: 1552 days at −20 °C
QC sample bench-top stability [2]: 68.5 hours at room temp
Stock solution stability (spike solutions) [2]: 610 days at −20 °C for ketamine/norketamine spike solutions
Processed sample stability [2]: 146.5 hours at room temperature
Whole Blood Stability [2]: 120 minutes at room temperature and in an ice-water bath (0-4° C.)
Stock solution stability [2, 8]: 6 h
Stock solution stability ([2]; stock solutions at −20° C.): 15100 h

CN[C@]1(c2ccccc2Cl)CCCCC1=O [Esketamine 84 mg]
Withdrawn: Adverse event, % of subjects [3]: (13.9%)
Withdrawn: Adverse event, number of subjects [3]: 5
Withdrawn: Lack of Efficacy, % of subjects [3]: (2.8%)
Withdrawn: Lack of Efficacy, number of subjects [3]: 1

NC1(c2ccccc2Cl)CCCCC1=O (stereo not shown) [Norketamine]
QC sample freeze/thaw stability [2, 6]: 3 freeze (−20° C.)/thaw (ice-water bath) cycles
QC sample freeze/thaw stability [2, 7]: 3 freeze (−20° C.)/thaw (room temperature) cycles
QC sample long-term storage stability [2]: 1552 days at −20 °C
QC sample bench-top stability [2]: 68.5 hours at room temp
Stock solution stability (spike solutions) [2]: 610 days at −20 °C for ketamine/norketamine spike solutions
Processed sample stability [2]: 146.5 hours at room temperature
Whole Blood Stability [2]: 120 minutes at room temperature and in an ice-water bath (0-4° C.)
Stock solution stability [2, 8]: 6 h
Stock solution stability ([2]; stock solutions at −20° C.): 15100 h

NC1(c2ccccc2Cl)CCCCC1=O (stereo not shown) [noresketamine]
Mean ratio of noresketamine to esketamine, AUClast ([4]; 28, 56, 84 mg): 3.62 to 4.32
Mean ratio of noresketamine to esketamine, AUC∞ ([4]; 28, 56, 84 mg): 3.80 to 4.46
Mean ratio of noresketamine to esketamine, Cmax ([4]; 28, 56, 84 mg): 1.96 to 2.55
Median tmax of noresketamine, range across regimens ([4]; healthy subjects, intranasal esketamine 28, 56, 84 mg): 1.25 to 1.5 h
AUC (AUClast and AUC∞) variability ([4]; noresketamine in plasma): 17.0% to 21.3
Between-subject variability for Cmax ([4]; noresketamine in plasma): 25.8% to 33.7
AUClast [4, 9]: 454 ng·h/mL
AUC∞ [4, 9]: 508 ng·h/mL
Cmax [4, 9]: 92.8 ng/mL
t1/2 [4, 9]: 7.74 h
Tmax [4, 9]: 1.25 h
AUClast [4, 10]: 851 ng·h/mL
AUC∞ [4, 10]: 924^c h*ng/mL
Cmax [4, 10]: 154 ng/mL
t1/2 [4, 10]: 7.71^c h
Tmax [4, 10]: 1.50 h
AUClast [4, 11]: 1287 ng·h/mL
AUC∞ [4, 11]: 1392^b h*ng/mL
Cmax [4, 11]: 241 ng/mL
t1/2 [4, 11]: 7.48^b h
Tmax [4, 11]: 1.50 h
Metabolite/Parent Ratio AUClast ([4]; esketamine 28 mg (Treatment A)): 3.62
Metabolite/Parent Ratio AUC∞ ([4]; esketamine 28 mg (Treatment A)): 3.80^b
Metabolite/Parent Ratio Cmax ([4]; esketamine 28 mg (Treatment A)): 1.96
Metabolite/Parent Ratio AUClast ([4]; esketamine 56 mg (Treatment B)): 4.07
Metabolite/Parent Ratio AUC∞ ([4]; esketamine 56 mg (Treatment B)): 4.22^b
Metabolite/Parent Ratio Cmax ([4]; esketamine 56 mg (Treatment B)): 2.28
Metabolite/Parent Ratio AUClast ([4]; esketamine 84 mg (Treatment C)): 4.32
Metabolite/Parent Ratio AUC∞ ([4]; esketamine 84 mg (Treatment C)): 4.46^d
Metabolite/Parent Ratio Cmax ([4]; esketamine 84 mg (Treatment C)): 2.55
Mean t1/2, range across regimens ([4]; noresketamine, esketamine 28, 56, 84 mg): 7.48 to 7.74 h

OCCOCCN1CCN(C2=Nc3ccccc3Sc3ccccc32)CC1 [quetiapine]
Rate of discontinuation due to adverse events [5]: 23.7%
